Assay results reported in PubChem BioAssay AID624281 (Broad Institute, 2012).
Active and inactive are the calls of the source. No rule for the calls is given here.

Test system: V. cholerae DH231 (ΔcqsS ΔluxS) lux bioluminescence, 6 h
Test: Confirmatory dose response, inducers of lux bioluminescence, V. cholerae DH231 δcqsS δluxS (AID 624281)
Conditions: not given

| SMILES | AC40 |
| --- | --- |
| O=C(Nc1nnc(-c2ccc3c(c2)OCCO3)o1)C1CCCCC1 | 883 nM |
| COc1ccccc1NC(=O)COC(=O)c1cc2c(s1)CCC2 | > 35000 nM (inactive) |
| Cc1ccc2cc3c(NC(=O)c4ccco4)nn(C)c3nc2c1 | 2030 nM |

Test system: not listed separately
Test: as above
Conditions: V. cholerae DH231 (ΔcqsS ΔluxS) lux bioluminescence, 6 h; at 35 µM (top of the series)

| SMILES | luminescence activation |
| --- | --- |
| CCCn1nnnc1NCc1ccc(N2CCCC2)cc1 | -14% (inactive) |
| COc1ccccc1NC(=O)COC(=O)c1ccc(C)cc1 | 8.61% (inactive) |
| CCn1nnc(NCc2ccc(C)cc2)n1 | 4.08% (inactive) |
| CCCn1nnnc1NCc1ccc(N(CC)CC)cc1 | -19.9% (inactive) |
| COc1ccccc1NC(=O)COC(=O)c1oc2ccccc2c1C | -6.24% (inactive) |
| COc1ccc(Cl)cc1NC(=O)COC(=O)c1ccc(C)o1 | -3.04% (inactive) |
| CCn1c(CC(=O)Nc2cccc(Cl)c2Cl)nnc1SCCOc1ccc(OC)cc1 | -63.2% (inactive) |
| CCC(C)NC(=O)Cc1ccc(-c2ccccc2)cc1 (stereo not given) | -15.3% (inactive) |
| Cc1c(Cl)cccc1-n1cnc(=O)c2ccccc21 | -4.11% (inactive) |
| CCCn1nnnc1NCc1ccc(C(C)C)cc1 | -30.3% (inactive) |
| Cc1ccc(OCCNC(=O)c2cccc(C)c2)cc1 | -33.1% (inactive) |
| O=c1ncn(-c2cccc(Cl)c2)c2ccccc12 | 14.1% (inactive) |
| Cc1ccc(CC(=O)NC2CCCC2)cc1 | 0.807% (inactive) |
| CCCn1nnnc1NCc1ccccc1Cl | -4.59% (inactive) |
| O=C(Cc1ccc(-c2ccccc2)cc1)NC1CCCC1 | -8.42% (inactive) |
| CCOc1ccc(Nc2ccc3nonc3c2[N+](=O)[O-])cc1 | -40.9% (inactive) |
| CCn1nnnc1NCc1ccc(N2CCCC2)cc1 | -52.4% (inactive) |
